This is an account of results in US8207128B2, “Polypeptide inhibiting transmigration of leukocytes or growth and/or metastasis of cancer cells, and fusion protein thereof” (Supadelixir Inc., priority 2005, dated 2012).

One assay has as its system mice with RA. In words: Transmigration of lymphocytes and myeloid cells in the spleens of RA mice, flow cytometry. It is filed as in vivo. To be noted: spleen, i.p. at 2-day intervals for 4 weeks, similar to MTX-treated group, FIG. 6. The source says: A polypeptide of SEQ ID NO: 26 (40 MOOD) was intraperitoneally administered to mice with RA, which had been induced in the same manner in EXPERIMENTAL EXAMPLE 2, at 2-day intervals for 4 weeks. Normal mice, saline-treated RA mice with intraperitoneal injection of a saline solution, and MTX-treated RA mice with intraperitoneal injection of a solution of MTX (100 □) in a saline solution (100 □) were used as control groups. Spleen tissues were harvested from the mice of all the experimental groups and washed with RPMI 1640 media, and single cells were isolated. After the total number of the single cells were counted, the single cells were stained with monoclonal antibodies (anti-CD3^+, CD4^+, CD8^+, CD11^+, CD19^+, CD69^+, Gr-1^+) capable of labeling T cells (CD3^+, CD4^+, CD8^+), activated T cells (CD3^+, CD69^+), B cells (CD19^+), and myeloid cells (CD11^+, Gr-1^+), and flow cytometry analysis was performed. The number of lymphocytes and myeloid cells migrated to […] was measured by determining the number of the T cells, the activated T cells, the B cells, and the myeloid cells per total cell number, and the results are illustrated in FIG. 6.
(Flow cytometry measures light scatter and fluorescence of single cells or particles in a stream.)

The subject of another assay is RA mice. In words: Migration of T cells, B cells and myeloid cells into the joint spaces of RA mice, synovial fluid flow cytometry. The assay is classed as in vivo. To be noted: dosing as in Experimental Example 3, similar to MTX-treated group, FIG. 7. As for the experimental part:
The polypeptide of the present invention, a saline solution, or MTX was administered to RA mice in the same manner as in EXPERIMENTAL EXAMPLE 3, and synovial fluid was obtained from the joint spaces of the mice of all the experimental groups. After the total cell number in the synovial fluid was counted, flow cytometry analysis was performed in the same manner as in EXPERIMENTAL EXAMPLE 3 to measure the number of T cells (CD3^+), B cells (CD19^+), and myeloid cells (CD11b^+, Gr-1^+) migrated to the joint spaces. The results are illustrated in FIG. 7.

The test system of assay [1] is B16-F10-Luc-G5 cells (mouse melanoma cell line). In words: In vivo transmigration of cancer cells, B16-F10-Luc-G5 injected into tail veins, lung and liver nodules. Particulars: nude mice; 100 μg i.p. at 2-day intervals for 15 days; control peptide SEQ ID NO: 27; FIG. 17. As for the experimental part: B16-F10-Luc-G5 cells (mouse melanoma cell line, Xenogen, U.S.A.) were injected into the tail veins of 10 nude mice (5 weeks old). The nude mice were divided into five mice for a control group and five mice for a test group. The control group was injected with a mixture of PBS with a peptide consisting of EEFDDAEEFDD (SEQ ID NO: 27) (control peptide) and the test group with a mixture of PBS with 100 μg of a peptide of SEQ ID NO: 26. The control peptide and the peptide of SEQ ID NO: 26 were intraperitoneally administered to the control group and the test group, respectively, at 2-day intervals for 15 days. Then, the nude mice were dissected and the lungs and livers were excised from the nude mice. Tumor nodules were counted.

For the substance “SEQ ID NO: 26: polypeptide derived from the mouse CD99, corresponds to the polypeptide of SEQ ID No: 14 derived from human CD99 (SGGISDSDLAD; listed as Mus musculus)”, in the assay on mice with RA, the “migrated cell numbers of T cells, activated T cells, B cells and myeloid cells as fraction of saline-treated group” value is “about ⅔”. Further, the “number of T cells, B cells and myeloid cells migrated to joint spaces, relative to saline-treated group” value in the assay on RA mice was 50-70%. Moreover, the “degree of spread of melanoma (lung and liver nodules) relative to control group” value in assay [1] is listed as “about 40%”.
